Among the data in ChEMBL document CHEMBL1125738, “A ring-enlarged oxetanocin A analogue as an inhibitor of HIV infectivity” (1991) are Protective dose values, retold here.

The test has as its system Human immunodeficiency virus 1. The test can be described thus: Cytopathogenic effect was evaluated against Human immunovirus-1 (HIV-1). It counts as functional. (Cytopathic effects are the visible damage that an infection or toxin causes in cultured cells.)

Take `Nc1ncnc2c1ncn2[C@@H]1O[C@H](CO)[C@H]1CO`: the Protective dose is 100 µM. To `Nc1ncnc2c1ncn2[C@H]1C[C@H](CO)[C@@H](CO)O1` belongs 10 µM.
